From ChEMBL document CHEMBL6083208, “Integrating amino acids into Bcr-Abl inhibitors: design, synthesis, biological evaluation, and in silico studies” (RSC Med Chem, 2024)
Active and inactive are the calls of the source. No cut-off for these calls is given here.

How the values were obtained:
K562 [1] = assay: Induction of apoptosis in human K562 cells assessed as early apoptotic cells at 15 uM measured after 48 hrs by annexin-V/FITC and propidium iodide double staining based flow cytometry analysis (reference value: 3.57%); assay type: functional
[2] = molecular target: T1, Bcr/Abl fusion protein (Homo sapiens) (UniProt P00519+P11274); assay: Inhibition of wild type BCR-ABL in human K562 cells assessed as inhibition of Bcr-Abl phosphorylation level at 20 uM measured after 48 hrs by Western blot analysis; assay type: cell-based
BaF3 [3] = assay: Antiproliferative activity against mouse BaF3 cells harbouring Bcr-Abl T315I assessed of cell viability at 30 uM incubated for 72 hrs by Celltiter-glo luminescent cell viability assay relative to control; assay type: functional
K562 [4] = assay: Induction of apoptosis in human K562 cells assessed as viable cells at 1 uM measured after 48 hrs by annexin-V/FITC and propidium iodide double staining based flow cytometry analysis (reference value: 92.67%); assay type: functional; details: read-out: Activity
K562 [5] = assay: Induction of apoptosis in human K562 cells assessed as viable cells at 10 uM measured after 48 hrs by annexin-V/FITC and propidium iodide double staining based flow cytometry analysis (reference value: 92.67%); assay type: functional; details: read-out: Activity
K562 [6] = assay: Induction of apoptosis in human K562 cells assessed as early apoptotic cells at 10 uM measured after 48 hrs by annexin-V/FITC and propidium iodide double staining based flow cytometry analysis (reference value: 3.57%); assay type: functional
BaF3 [7] = assay: Antiproliferative activity against mouse BaF3 cells harbouring Bcr-Abl T315I assessed of cell viability at 10 uM incubated for 72 hrs by Celltiter-glo luminescent cell viability assay relative to control; assay type: functional
K562 [8] = assay: cells; details: Homo sapiens, K562, 48 h
K562 [9] = assay: Induction of apoptosis in human K562 cells assessed as necrotic cells at 1 uM measured after 48 hrs by annexin-V/FITC and propidium iodide double staining based flow cytometry analysis (reference value: 1.05%); assay type: functional
[10] = molecular target: T1, Bcr/Abl fusion protein (Homo sapiens); assay: Inhibition of wild type BCR-ABL in human K562 cells assessed as inhibition of STAT5 phosphorylation level at 20 uM measured after 48 hrs by Western blot analysis; assay type: cell-based
K562 [11] = assay: Induction of apoptosis in human K562 cells assessed as late apoptotic cells at 1 uM measured after 48 hrs by annexin-V/FITC and propidium iodide double staining based flow cytometry analysis (reference value: 2.72%); assay type: functional
[12] = molecular target: T1, Bcr/Abl fusion protein (Homo sapiens); assay: Inhibition of wild type BCR-ABL in human K562 cells assessed as inhibition of STAT5 phosphorylation level measured after 48 hrs by Western blot analysis; assay type: cell-based; details: dose 0.1-15 µM
K562 [13] = assay: Induction of apoptosis in human K562 cells assessed as viable cells at 15 uM measured after 48 hrs by annexin-V/FITC and propidium iodide double staining based flow cytometry analysis (reference value: 92.67%); assay type: functional; details: read-out: Activity
K562 [14] = assay: Induction of apoptosis in human K562 cells assessed as necrotic cells at 15 uM measured after 48 hrs by annexin-V/FITC and propidium iodide double staining based flow cytometry analysis (reference value: 1.05%); assay type: functional
[15] = Inhibition of Bcr-Abl T315Ialpha mutant (unknown origin) using Abltide as substrate incubated for 1 hr by luminescence based ADP-glo assay; parameters: species or system Homo sapiens
K562 [16] = assay: Induction of apoptosis in human K562 cells assessed as necrotic cells at 10 uM measured after 48 hrs by annexin-V/FITC and propidium iodide double staining based flow cytometry analysis (reference value: 1.05%); assay type: functional
HEK293 = assay: Antiproliferative activity against HEK293 cells after 48 hrs by MTT assay; assay type: toxicity, cell-based; parameters: concentration or dose not given beside the values; details: human, hek293, 48 h
K562 [17] = assay: Induction of apoptosis in human K562 cells assessed as late apoptotic cells at 15 uM measured after 48 hrs by annexin-V/FITC and propidium iodide double staining based flow cytometry analysis (reference value: 2.72%); assay type: functional
K562 [18] = assay: Induction of apoptosis in human K562 cells assessed as early apoptotic cells at 1 uM measured after 48 hrs by annexin-V/FITC and propidium iodide double staining based flow cytometry analysis (reference value: 3.57%); assay type: functional
Bcr/Abl fusion protein = Bcr/Abl fusion protein (Homo sapiens, UniProt P00519); assay: Inhibition of wild type Bcr-Abl (unknown origin) using Abltide as substrate incubated for 1 hr by luminescence based ADP-glo assay; assay type: protein assay
THP-1 = assay: Antiproliferative activity against human THP-1 cells after 48 hrs by MTT assay; assay type: functional; parameters: concentration or dose not given beside the values
K562 [19] = assay: Induction of apoptosis in human K562 cells assessed as late apoptotic cells at 10 uM measured after 48 hrs by annexin-V/FITC and propidium iodide double staining based flow cytometry analysis (reference value: 2.72%); assay type: functional
K562 [20] = assay: Induction of cell cycle arrest in human K562 cells assessed as increase in accumulation of cells at G0/G1 phase at 1 to 20 uM measured after 48 hrs by PI staining based flow cytometry analysis; assay type: functional; details: dose 1-20 µM
BaF3 [21] = assay: Antiproliferative activity against mouse BaF3 cells harbouring Bcr-Abl T315I assessed of cell viability at 2 uM incubated for 72 hrs by Celltiter-glo luminescent cell viability assay relative to control; assay type: functional
K562 [22] = assay: Induction of cell cycle arrest in human K562 cells assessed as reduction in accumulation of cells at S phase at 1 to 20 uM measured after 48 hrs by PI staining based flow cytometry analysis; assay type: functional; details: dose 1-20 µM
[23] = molecular target: T1, Bcr/Abl fusion protein (Homo sapiens); assay: Inhibition of wild type BCR-ABL in human K562 cells assessed as inhibition of Bcr-Abl phosphorylation level at 1 uM measured after 48 hrs by Western blot analysis; assay type: cell-based
K562 [24] = assay: Induction of cell cycle arrest in human K562 cells assessed as increase in accumulation of cells at G2/M phase at 1 to 20 uM measured after 48 hrs by PI staining based flow cytometry analysis; assay type: functional; details: dose 1-20 µM

T1 sequence (P00519 whole entry, looked up, the tested form may be a part): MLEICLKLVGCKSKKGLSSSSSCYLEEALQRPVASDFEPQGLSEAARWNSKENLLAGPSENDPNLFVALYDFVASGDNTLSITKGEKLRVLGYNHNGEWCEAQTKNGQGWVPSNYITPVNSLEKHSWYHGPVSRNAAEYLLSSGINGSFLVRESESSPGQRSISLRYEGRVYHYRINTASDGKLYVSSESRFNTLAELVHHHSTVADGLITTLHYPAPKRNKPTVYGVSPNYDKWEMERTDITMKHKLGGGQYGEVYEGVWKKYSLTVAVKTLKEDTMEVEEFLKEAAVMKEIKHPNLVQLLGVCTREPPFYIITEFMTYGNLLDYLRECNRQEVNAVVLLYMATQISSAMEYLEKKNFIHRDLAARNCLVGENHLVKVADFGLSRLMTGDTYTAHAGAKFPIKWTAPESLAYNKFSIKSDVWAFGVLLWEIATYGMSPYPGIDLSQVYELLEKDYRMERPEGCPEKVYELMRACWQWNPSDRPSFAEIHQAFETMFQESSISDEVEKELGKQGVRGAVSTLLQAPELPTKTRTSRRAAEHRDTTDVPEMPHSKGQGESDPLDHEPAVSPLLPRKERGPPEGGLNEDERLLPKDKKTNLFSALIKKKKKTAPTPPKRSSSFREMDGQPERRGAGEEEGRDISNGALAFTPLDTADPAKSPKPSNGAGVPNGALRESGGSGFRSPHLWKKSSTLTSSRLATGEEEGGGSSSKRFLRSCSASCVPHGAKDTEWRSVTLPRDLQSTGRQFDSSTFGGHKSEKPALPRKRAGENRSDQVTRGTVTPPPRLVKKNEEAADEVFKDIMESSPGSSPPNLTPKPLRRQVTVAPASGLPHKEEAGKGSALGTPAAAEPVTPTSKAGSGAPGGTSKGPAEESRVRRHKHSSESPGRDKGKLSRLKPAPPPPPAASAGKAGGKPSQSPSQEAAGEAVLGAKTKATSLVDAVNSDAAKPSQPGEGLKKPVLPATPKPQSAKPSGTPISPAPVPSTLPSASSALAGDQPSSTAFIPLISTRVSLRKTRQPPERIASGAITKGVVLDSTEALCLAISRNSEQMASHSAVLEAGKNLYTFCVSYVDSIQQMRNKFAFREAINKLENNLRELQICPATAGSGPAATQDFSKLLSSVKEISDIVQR
T1 sequence (P11274 whole entry, looked up, the tested form may be a part): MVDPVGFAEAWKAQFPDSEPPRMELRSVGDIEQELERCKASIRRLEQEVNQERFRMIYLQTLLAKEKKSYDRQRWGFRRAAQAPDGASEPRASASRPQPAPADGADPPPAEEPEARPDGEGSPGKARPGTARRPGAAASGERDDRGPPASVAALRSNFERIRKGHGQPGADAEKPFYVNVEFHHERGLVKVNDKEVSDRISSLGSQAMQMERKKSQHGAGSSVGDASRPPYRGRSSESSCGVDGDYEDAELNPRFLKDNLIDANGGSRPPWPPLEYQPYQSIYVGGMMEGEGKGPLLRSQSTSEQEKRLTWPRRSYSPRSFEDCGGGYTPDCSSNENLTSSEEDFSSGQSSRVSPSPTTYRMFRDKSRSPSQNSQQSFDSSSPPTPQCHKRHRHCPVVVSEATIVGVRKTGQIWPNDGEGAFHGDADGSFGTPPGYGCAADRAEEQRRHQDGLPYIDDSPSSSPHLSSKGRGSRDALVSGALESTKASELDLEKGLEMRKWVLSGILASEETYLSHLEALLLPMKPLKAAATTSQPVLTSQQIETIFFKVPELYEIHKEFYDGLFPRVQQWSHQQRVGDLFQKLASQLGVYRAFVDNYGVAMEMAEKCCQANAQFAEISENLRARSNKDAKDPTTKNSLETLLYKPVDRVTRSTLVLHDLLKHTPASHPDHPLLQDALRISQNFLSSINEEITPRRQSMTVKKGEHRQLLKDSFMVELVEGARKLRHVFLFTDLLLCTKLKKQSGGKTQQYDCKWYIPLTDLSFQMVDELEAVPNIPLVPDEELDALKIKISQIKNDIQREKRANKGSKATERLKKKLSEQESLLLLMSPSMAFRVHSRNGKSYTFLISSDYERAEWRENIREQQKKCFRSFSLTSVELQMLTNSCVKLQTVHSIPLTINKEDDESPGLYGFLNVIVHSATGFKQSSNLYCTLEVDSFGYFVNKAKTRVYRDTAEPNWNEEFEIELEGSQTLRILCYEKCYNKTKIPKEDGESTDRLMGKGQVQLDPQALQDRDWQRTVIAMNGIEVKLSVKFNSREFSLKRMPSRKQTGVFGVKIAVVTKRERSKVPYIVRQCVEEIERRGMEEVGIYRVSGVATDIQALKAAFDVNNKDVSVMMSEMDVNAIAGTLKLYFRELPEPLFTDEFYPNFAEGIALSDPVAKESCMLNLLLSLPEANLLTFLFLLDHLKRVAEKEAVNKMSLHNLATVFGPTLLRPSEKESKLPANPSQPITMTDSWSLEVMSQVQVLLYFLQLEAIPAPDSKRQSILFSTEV
Chain of Bcr/Abl fusion protein (P00519 whole entry, the tested form may be a part): as the sequence (P00519 whole entry, looked up, the tested form may be a part) above
Chain of Bcr/Abl fusion protein (P11274 whole entry, further chain, the tested form may be a part): as the sequence (P11274 whole entry, looked up, the tested form may be a part) above

Compound	inhibition at 30 µM (BaF3 [3])	inhibition at 10 µM (BaF3 [7])	IC50 (K562 [8])	IC50 [15]	Activity (HEK293)	IC50 (Bcr/Abl fusion protein)	Activity (THP-1)	inhibition at 2 µM (BaF3 [21])	other results
CC(C)(C)[C@H](NC(=O)c1cccc(-c2ccc(NS(C)(=O)=O)nc2)c1)C(=O)Nc1ccc(Cl)c(C(F)(F)F)c1	99.6%	100%	0.61 nM	48 nM	100%	1.44 nM	65%	10%	Activity (K562 [1]): 8.69%; inhibition [2]: Active; viability at 1 µM (K562 [4]): 88.2%; viability at 10 µM (K562 [5]): 82.8%; Activity (K562 [6]): 8.2%; Activity (K562 [9]): 0.17%; inhibition [10]: Active; Activity (K562 [11]): 4.45%; inhibition [12]: Dose-dependent-effect; viability at 15 µM (K562 [13]): 82.5%; Activity (K562 [14]): 0.28%; Activity (K562 [16]): 0.4%; Activity (K562 [17]): 8.48%; Activity (K562 [18]): 7.15%; Activity (K562 [19]): 8.64%; Activity (K562 [20]): Active; Activity (K562 [22]): Active; inhibition [23]: Active; Activity (K562 [24]): Active
CC(C)(C)[C@H](NC(=O)c1ccc(-c2cncc(C(=O)NC3CC3)c2)cc1)C(=O)Nc1ccc(Cl)c(C(F)(F)F)c1	100%	42.6%	3.34 nM	140 nM	91%	8.02 nM	100%	5.84%	
CC(C)(C)OC[C@H](NC(=O)c1ccc(-c2ccnc(N)c2)cc1)C(=O)Nc1ccc(Cl)c(C(F)(F)F)c1	99.8%	25.5%	3.02 nM	144 nM	94%	0.87 nM	56%	0.7%	
CC(=O)Nc1ccc(-c2cccc(C(=O)N[C@@H](CO)C(=O)Nc3ccc(Cl)c(C(F)(F)F)c3)c2)cn1	90%	24.5%	0.85 nM	66 nM	85%	0.33 nM	100%	-1.17%	
CC(=O)Nc1cc(-c2ccc(C(=O)N[C@H](C(=O)Nc3ccc(Cl)c(C(F)(F)F)c3)C(C)(C)C)cc2)ccn1	99.8%	31.8%	3.31 nM	180 nM	88%	9.9 nM	68%	4.64%	
CC(C)(C)OC[C@H](NC(=O)c1cccc(-c2ccc(NS(C)(=O)=O)nc2)c1)C(=O)Nc1ccc(Cl)c(C(F)(F)F)c1	96.7%	99.9%	2.59 nM	138 nM	88%	10.6 nM	77%	0.62%	
CC(C)(C)[C@H](NC(=O)c1ccc(-c2ccnc(NS(C)(=O)=O)c2)cc1)C(=O)Nc1ccc(Cl)c(C(F)(F)F)c1	100%	36.1%	0.93 nM	66.9 nM	81%	3.93 nM	100%	8.95%	
CC(C)(C)OC[C@H](NC(=O)c1ccc(-c2ccnc(NS(C)(=O)=O)c2)cc1)C(=O)Nc1ccc(Cl)c(C(F)(F)F)c1	96.7%	27.6%	0.19 nM	51 nM	93%	0.33 nM	94%	7.49%	
Nc1ccc(-c2cccc(C(=O)N[C@@H](CO)C(=O)Nc3ccc(Cl)c(C(F)(F)F)c3)c2)cn1	88.3%	15.2%	2.13 nM	148 nM	93%	1.6 nM	84%	-0.03%	
